For one data set, the system named is 5-HT2A receptor. Set-up: method as in PMID 36407948, PMID 33860183. To be noted: in vitro; cited from earlier work.
In a further data set the test system is head twitch responses. Set-up: method as in PMID 33860183. To be noted: equimolar basis; cited from earlier work.
The nature of data set [1]: Plasma psilocin by LC-MS/MS after intraperitoneal psilocybin or psilacetin fumarate.
For data set [2] the following is noted: cited from earlier work.

For `CC(=O)Oc1cccc2[nH]cc(CCN(C)C)c12` [psilacetin, 4-acetoxy-N,N-dimethyltryptamine], the “receptor potency, fold lower than that of psilocin” value with 5-HT2A receptor is recorded as 10- to 20 fold. The “head twitch response potency” value in the data set with head twitch responses was 1.12 µmol/kg.

By half-life is commonly meant the time needed for the level to fall by half in the phase considered. For `CN(C)CCc1c[nH]c2cccc(O)c12` [psilocin], the k el in data set [1] (both, C57Bl6/J, mouse, plasma, ip) was 0.000433 s⁻¹. For the same molecule, in data set [1] (both, C57Bl6/J, mouse, plasma, ip, psilocin half-life (T1/2), plasma psilocin from psilocybin or psilacetin, mice), the half-life was ~30 min. Further, in data set [1] (lower limit of quantitation 0.1 ng/mL, approximately 6 half-lives), the “plasma psilocin concentration by 4 h after administration” value was “near or below the lower limit of quantitation”. The psilocin half-life entry in data set [1] (plasma psilocin, mice) is on record as “approximately one-half”. Moreover, the “terminal elimination rate of psilocin, range” value in data set [1] (range across tested conditions) is reported as 0.020–0.038 min^1. Also, in the data set with head twitch responses, the “head twitch response potency” value is 0.81 µmol/kg.

With `CN(C)CCc1c[nH]c2cccc(OP(=O)(O)O)c12` [psilocybin], in data set [2], the “plasma concentrations in human pharmacokinetic studies” value is 5 to 50 ng/mL.

The values are drawn from paper PMC10804612, “In vivo validation of psilacetin as a prodrug yielding modestly lower peripheral psilocin exposure than psilocybin” (Frontiers in Psychiatry, 2024).
